Here are results for 40 compounds from patent publication US20240342139A1, “DEVELOPMENT AND OPTIMIZATION OF THIOCHROMENOTHIAZOLE-BASED MSUT2 INHIBITORS AS CANDIDATES FOR THE TREATMENT OF TAUOPATHY” (The United States Government As Represented By the …, priority 2023, published 2024).

For data set [1], the target named is T1, MSUT2 (Homo sapiens (Human), UniProt Q6PJT7). Briefly: primary tau-inclusion neuronal assay (MSUT2 inhibitor activity). Particulars: for pIC50: dose-dependent activity, primary tau-inclusion neuronal assay; for biological activity in the in vitro assay (SAR summary in words): preliminary SAR summary. The format is cell-based. How it is done:
A variety of analogs in which the tricycle scaffold was modified were prepared and evaluated for their MSUT2 inhibitor activity.
The N-substitution pattern was also explored. The dose-dependent activity of these compounds was determined using a primary tau-inclusion neuronal assay and is summarized in Table 3 below.

The target of data set [2] is T1, MSUT2. Kind of data set: photo-affinity labelling experiments (PAL probe BL-1138, TAMRA fluorescence SDS-PAGE). The data set is classed as binding. Particulars: for ligand-protein binding mode (decrease in tagging density with competitor): used as competitor against PAL probe BL-1138, full MSUT2 and GST-MSUT2 construct. The source says: FIG. 7A and FIG. 7B show representative data from photo-affinity labelling experiments performed using UWK-5 (lanes 1-4) and BL-1122 (lanes 5-8) as competitors. Gel visualized by fluorescence imaging using TAMRA (excitation/emission maxima 546/579 nm).

Data set [3] has as its target T1, MSUT2. Kind of data set: NMR Saturation Transfer Difference studies. The format is binding. Particulars: 15 μM MSUT2 protein; down-field shift of ligand signals at 4.10 and 3.05 ppm; Kd could not be calculated. As for the experimental part:
The concentration of MSUT2 protein is 15 μM. Ratio of ligand to protein is indicated to the left of individual spectra.

Data set [4] concerns the target MSUT2/poly(A)RNA binding interaction (Homo sapiens (Human), UniProt Q6PJT7). Briefly: high-throughput AlphaScreen, dose-response in vitro. The data set is classed as biochemical. As to conditions: AlphaScreen dose-response profile in vitro. The source says:
MSUT2 has been identified as a therapeutic target for the treatment of tauopathy, and MSUT2 KO has decreased the accumulation of pathological tau and reduced the formation of NFTs in tau-transgenic PS19 mice models. Screening of >100,000 compounds in an AlphaScreen and an orthogonal FP-HTS assay identified a promising thiochromenathiazole-based inhibitor of the MSUT2/poly(A)RNA binding interaction. Preliminary SAR experiments have been conducted to confirm biological activity and to identify novel biologically active compounds of interest. […] Due to challenges in functionalizing an electron-deficient tricycle scaffold, the synthesis of analogues will coincide with an effort towards the optimization of synthetic conditions.

pIC50: −log10 of the molar value.

The pIC50 is the IC50 on a negative log10 scale, so that one unit is a factor of ten. A higher pIC50 goes with a low IC50.

T1 sequence (Q6PJT7 whole entry, species assumed): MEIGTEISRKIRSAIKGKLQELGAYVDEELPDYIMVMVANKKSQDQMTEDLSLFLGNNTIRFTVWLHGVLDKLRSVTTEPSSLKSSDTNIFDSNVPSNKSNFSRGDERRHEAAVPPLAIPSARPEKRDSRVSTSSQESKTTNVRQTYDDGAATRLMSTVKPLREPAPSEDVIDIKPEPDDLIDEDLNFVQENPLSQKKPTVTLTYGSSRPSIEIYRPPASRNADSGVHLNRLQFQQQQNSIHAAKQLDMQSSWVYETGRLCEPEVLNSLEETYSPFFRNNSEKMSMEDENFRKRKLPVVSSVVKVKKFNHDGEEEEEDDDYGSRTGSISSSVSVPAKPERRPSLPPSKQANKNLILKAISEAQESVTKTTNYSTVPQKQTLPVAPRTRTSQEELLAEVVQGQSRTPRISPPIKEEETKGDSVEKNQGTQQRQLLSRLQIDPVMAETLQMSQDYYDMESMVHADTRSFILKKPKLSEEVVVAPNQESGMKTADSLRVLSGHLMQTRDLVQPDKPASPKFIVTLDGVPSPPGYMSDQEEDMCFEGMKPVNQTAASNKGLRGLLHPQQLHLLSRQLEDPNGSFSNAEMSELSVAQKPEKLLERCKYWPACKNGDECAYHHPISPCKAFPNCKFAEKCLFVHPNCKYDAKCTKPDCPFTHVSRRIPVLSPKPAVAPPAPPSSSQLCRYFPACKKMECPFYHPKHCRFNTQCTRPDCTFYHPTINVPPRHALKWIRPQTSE
Chain of MSUT2/poly(A)RNA binding interaction (Q6PJT7 whole entry, species assumed): as above

`CCS(=O)(=O)c1ccc(C(=O)Nc2nc3c(s2)CSCC3)cc1`: in data set [1], the pIC50 was 3.96 and the “biological activity in the in vitro assay (SAR summary in words)” value (from here on “biological activity”) was “eliminates activity”.
In the same order, the values of `C#CCCNC(=O)Nc1nc2c(s1)CSc1ccccc1-2` [BL-1085] are 4.91 and “favorable activity”.
For the compound `Nc1nc2c(s1)CSc1ccc(F)cc1-2` [BL-0980], the pIC50 in data set [1] was 4.64.
Take `CC(C)Cc1ccc(CNc2nc3c(s2)CSc2ccccc2-3)cc1` [BL-1043]: in data set [1], the negative logarithm of the IC50 (pIC50) is 4.69.
In the case of `Fc1ccc(CNc2nc3c(s2)CSc2ccccc2-3)cc1` [BL-1023], the pIC50 in data set [1] is 4.77.
Regarding `Nc1nc(-c2ccccc2)cs1` [BL-1055], in data set [1], the pIC50 was less than 3.89 and the “biological activity” value is recorded as “eliminates activity”.
The compound `CCN(CC)c1ccc(CNc2nc3c(s2)CSc2ccccc2-3)cc1` [BL-1041] showed a pIC50 in data set [1] of 5.25.
Regarding `C#CCCC1(CCNC(=O)Nc2nc3c(s2)CSc2ccccc2-3)N=N1` [BL-1138], the “fluorescence tagging of MSUT2 protein” value in data set [2] (PAL probe clicked with TAMRA-biotin-azide) is “target engagement”.
Regarding `Nc1nc2c(s1)CSc1c(F)cc(F)cc1-2` [BL-1017], the pIC50 in data set [1] was 4.22.
Same read-out and setting: next, `C#Cc1ccc(CNc2nc3c(s2)CSc2ccccc2-3)cc1` [BL-1092]: 4.93.
`Nc1nc2c(s1)CSc1cc(F)ccc1-2` [BL-0981] had a pIC50 in data set [1] of 4.65.
With `Nc1nc2c(s1)CCCc1ccccc1-2` [BL-0961], in data set [1], the pIC50 is less than 4.00 and the “biological activity” value was “loss of biological activity”.
For the compound `O=C(Nc1ccccc1)Nc1nc2c(s1)CSc1ccccc1-2` [BL-1131], the pIC50 in data set [1] was 4.49.
For the compound `O=C(NCCS(=O)(=O)O)Nc1nc2c(s1)CSc1ccccc1-2` [BL-1122], in data set [1], the pIC50 is 5.49 and the “biological activity” value is reported as “favorable activity”. Also, the “binding affinity of ligand for MSUT2 protein” value in data set [3] was “tight binding affinity”. In addition, the “ligand-protein binding mode (decrease in tagging density with competitor)” value in data set [2] is given as “competitive”.
In data set [1], `CCS(=O)(=O)c1ccc(C(=O)Nc2nc3c(s2)CCc2ccccc2-3)cc1` [BL-0963] showed a pIC50 of 4.35.
In data set [1], `Fc1ccc(CNc2nc3c(s2)COc2ccccc2-3)cc1` [BL-1038] gave a pIC50 of 4.68.
On to `C#CCNC(=O)Nc1nc2c(s1)CSc1ccccc1-2` [BL-1084], for which the pIC50 in data set [1] was 4.63.
On the same count and under the same terms, the result for `Nc1nc2c(s1)Cc1ccccc1-2` [BL-1125] reads 4.31.
For `CC1(C)Sc2ccccc2-c2nc(N)sc21` [BL-1124], the pIC50 in data set [1] is 4.29.
On to `CCS(=O)(=O)c1ccc(C(=O)Nc2nc(-c3ccccc3)cs2)cc1` [BL-1057], for which, in data set [1], the negative-log IC50 (pIC50) is less than 3.89 and the “biological activity” value is “eliminates activity”.
As to `O=S(=O)(Nc1nc2c(s1)COc1ccccc1-2)c1ccccc1` [BL-1039], the pIC50 in data set [1] was 4.47.
Turning to `C=C(Cc1nc2c(s1)CSc1ccccc1-2)c1ccc(S(=O)(=O)CC)cc1` [UWK-5], the results for the negative logarithm of the IC50 (pIC50) in data set [1] and in data set [4] were 6.23 and 5.96, respectively. For the same compound, the “ligand-protein binding mode (decrease in tagging density with competitor)” value in data set [2] was “competitive”.
In data set [1], `Nc1nc2c(s1)CSc1ncccc1-2` [BL-1047] showed a pIC50 of 4.96.
Consider `CC(C)(C)OC(=O)NCC(=O)Nc1nc2c(s1)CSc1ccccc1-2` [BL-1045], for which the pIC50 in data set [1] was 4.35.
Compound `NCC(=O)Nc1nc2c(s1)CSc1ccccc1-2` [BL-1046] had a pIC50 in data set [1] of 4.64.
With `Nc1nc2c(s1)CS(=O)(=O)c1ccccc1-2` [BL-1075], in data set [1], the pIC50 is less than 3.89 and the “biological activity” value is given as “complete loss of biological activity”.
In data set [1], `Nc1nc2c(s1)CSc1c(F)cccc1-2` [BL-0979] showed a pIC50 of 4.63.
In data set [1], `O=S(=O)(Nc1nc2c(s1)CSc1ccccc1-2)c1ccccc1` [BL-1027] had a pIC50 of 4.61.
For `Fc1ccc(CNc2nc3c(s2)CCc2ccccc2-3)cc1` [BL-1051], the negative logarithm of the IC50 (pIC50) in data set [1] was 4.66.
For the compound `CCS(=O)(=O)c1ccc(CNc2nc3c(s2)CSc2ccccc2-3)cc1` [BL-1126], the pIC50 in data set [1] was 4.87.
For `Nc1nc2c(s1)CCc1ccccc1-2` [BL-0960], in data set [1], the pIC50 is less than 4.00 and the “biological activity” value is reported as “loss of biological activity”.
Compound `CC(=O)N1N=C(c2ccccc2)SC12CCSc1ccccc12` (stereo not drawn) [BL-1123] had a pIC50 in data set [1] of 4.80.
With `c1ccc(CNc2nc3c(s2)CSc2ccccc2-3)cc1` [BL-1133], in data set [1], the pIC50 is 5.12 and the “biological activity” value is recorded as “widely tolerated”.
`COC(=O)CC[C@H](NC(=O)OC(C)(C)C)C(=O)Nc1nc2c(s1)CSc1ccccc1-2` [BL-1081] had a pIC50 in data set [1] of 4.91.
For the compound `Nc1nc2c(s1)COc1ccccc1-2` [BL-0959], in data set [1], the pIC50 is 5.41 and the “biological activity” value is reported as “tolerated”.
For `Nc1nc2c(s1)CSCC2` [BL-1018] the same measures were less than 3.89 and “eliminates activity”.
In the same order, the values of `C#CCOC(=O)Nc1nc2c(s1)CSc1ccccc1-2` [BL-1088] are 4.84 and “favorable activity”.
In data set [1], `Nc1nc2c(s1)CSc1ccccc1-2` [BL-0957] had a pIC50 of 5.09.
Turning to `Cc1ccc(CNc2nc3c(s2)CSc2ccccc2-3)s1` [BL-1132], in data set [1], the pIC50 was 5.11 and the “biological activity” value is reported as “widely tolerated”.
In data set [1], `CCS(=O)(=O)c1ccc(C(=O)Nc2nc3c(s2)COc2ccccc2-3)cc1` [BL-0962] showed a pIC50 of less than 4.00.
